This test has as its system acetylcholine receptors according to the invention (recombinantly modified HEK293 cells of Example 2). The note with it: nicotine final concentration 500 μM; HEK293 cells expressing the α subunit of an L-type Ca channel, recombinantly modified as in Example 2; FIG. 1.

Protocol: Cells were loaded with Fura-2-acetoxymethyl ester (5-10 μM in serum-free minimal essential medium containing 1% bovine serum albumin and 5 mM calcium chloride), washed with Tyrode solution buffered with N-(2-hydroxyethyl)piperazine-N′-(2-ethanesulphonic acid) (5 mM HEPES) and alternately illuminated, under a fluorescence microscope (Nikon Diaphot) with light of 340 nm and 380 nm wavelength. A measurement point corresponds to a pair of video images at the two wavelengths (exposure time per image, 100 ms). The time interval between two measurement points is 3 s. […] The fluorescence intensity of the cells when illuminated with light of 380 nm wavelength was divided by the corresponding intensity at 340 nm, thereby giving the ratio.
HEK293 cells, which express the α subunit of an L-type Ca channel (Zong et al. 1995, Stetzer et al. 1996), were cultured in Dulbecco's modified Eagle's medium and 10% foetal calf serum at 5% CO2 and from 20° C. to 37° C. […] Individual resistant clones were analyzed as described below.
The alterations in the intracellular calcium concentration were measured using Fura-2. […] 100 μl Tyrode buffer were added to the wells of the microtitre plate and the cells were illuminated alternately, under a fluorescence microscope (Nikon Diaphot), with light of 340 nm and 380 nm wavelength. […]

For the molecule `CN1CCCC1c1cccnc1` (stereo not shown) [nicotine], the “change in intracellular calcium (Fura-2 fluorescence ratio 380 nm/340 nm) following the addition of nicotine” value is “increase in intracellular calcium”.

Source of the values: patent US6933131B2, “Nucleic acids encoding insect acetylcholine receptor subunits” (Bayer Aktiengesellschaft, priority 1998, dated 2005).
